Data reported in article PMC10123104 (Nucleic Acids Research, 2023).
No end group written: not given here.

Target: YbiB (Escherichia coli, UniProt P30177)
Assay: biochemical
Assay type: binding

Sequence of YbiB (P30177 whole entry): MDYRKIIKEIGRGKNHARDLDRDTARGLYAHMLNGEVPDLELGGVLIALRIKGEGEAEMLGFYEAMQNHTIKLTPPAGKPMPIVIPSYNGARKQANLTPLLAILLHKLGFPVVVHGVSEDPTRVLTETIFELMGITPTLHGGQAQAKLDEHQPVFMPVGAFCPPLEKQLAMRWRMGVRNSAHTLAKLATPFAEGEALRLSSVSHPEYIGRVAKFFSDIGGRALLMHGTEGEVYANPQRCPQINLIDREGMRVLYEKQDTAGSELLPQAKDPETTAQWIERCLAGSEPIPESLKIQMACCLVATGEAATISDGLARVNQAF

Molecule LEEIAEEDDEDADDDADEDD [peptide4-AA] has a Kd of roughly 10 µM.

For `CC[C@H](C)[C@H](NC(=O)[C@H](Cc1ccccc1)NC(=O)[C@H](CCC(=O)O)NC(=O)[C@@H](NC(=O)CNC(=O)[C@H](CCC(=O)O)NC(=O)[C@H](CCC(=O)O)NC(=O)[C@H](CC(=O)O)NC(=O)[C@H](CC(=O)O)NC(=O)[C@H](CCC(=O)O)NC(=O)[C@H](CC(=O)O)NC(=O)[C@H](Cc1c[nH]c2ccccc12)NC(=O)[C@H](CC(=O)O)NC(=O)[C@H](CC(=O)O)NC(=O)[C@H](CC(=O)O)NC(=O)[C@H](Cc1c[nH]c2ccccc12)NC(=O)[C@@H](N)CC(=O)O)C(C)C)C(=O)N[C@@H](Cc1ccc(O)cc1)C(=O)N[C@@H](CCCCN)C(=O)N[C@@H](CCCNC(=N)N)C(=O)O` [peptide5], the stoichiometry n (ITC, Figure 3C isotherm, single binding event) was 0.937 ± 0.008.
